Source: publication PMC12621019, “Restructuring Antiviral Quinazolinone Frameworks to Derive and Optimize Inhibitors of Chikungunya Virus” (ACS Medicinal Chemistry Letters, 2025)

Assays:
[1] = tested on: CHIKV (strain 181/25mKate); experiment: microbe, parasite or virus in culture; assay type: cell-based; conditions: Chikungunya virus, NHDF, 72 h, read-out: titer redn, log
[2] = Cytotoxicity assay (CellTiter Glo) in NHDF cells; conditions: human, CC50, NHDF cells, maximum 40 μM
[3] = tested on: NHDF cells; experiment: Cytotoxicity assay (CellTiter Glo) in NHDF cells; conditions: NHDF cells, 72 h; maximum 40 μM; listed as racemic 1h

Compound | log reduction at 10 µM [1] | CC50 at 72 h [2] | CC50 [3]
COc1c(F)cc(-n2c([C@H]3CCCNC3)nc3cc(N4CCN(C5CCN(C)CC5)CC4)c(Cl)cc3c2=O)cc1F [(S)-1l] | 1.2 | 11.4 µM | –
COc1c(F)cc(-n2c([C@H]3CCCN3)nc3cc(N4CCNCC4)c(Cl)cc3c2=O)cc1F [(R)-1e] | 2.1 | 24.9 µM | –
COc1c(F)cc(-n2c([C@@H]3CCCN3)nc3cc(N4CCN(C(C)C)CC4)c(Cl)cc3c2=O)cc1F [(S)-1d] | 1.3 | > 40 µM | –
CC(C)N1CCN(c2cc3nc([C@@H]4CCCNC4)n(-c4cccc(Cl)c4)c(=O)c3cc2Cl)CC1 [(R)-1w] | 2.7 | 18 µM | –
COc1c(F)cc(-n2c([C@@H]3CCCNC3)nc3cc(N4CCN(C(C)C)CC4)c(Cl)cc3c2=O)cc1F [(R)-1g] | 2.3 | 16.2 µM | –
COc1c(F)cc(-n2c([C@@H]3CCCN3)nc3cc(N4CCN(C)CC4)c(Cl)cc3c2=O)cc1F [(S)-1c] | 1 | > 40 µM | –
COc1c(F)cc(-n2c(C3CCCCN3)nc3cc(N4CCN(C(C)C)CC4)c(Cl)cc3c2=O)cc1F (racemic) [rac-1h] | 1.3 | > 40 µM | without observed cytotoxicity
COc1c(F)cc(-n2c([C@H]3CCCN3)nc3cc(N4CCN(C(C)C)CC4)c(Cl)cc3c2=O)cc1F [(R)-1d] | 2.3 | 19 µM | –
COc1c(F)cc(-n2c([C@@H]3CCCN(c4ccccc4)C3)nc3cc(N4CCN(C(C)C)CC4)c(Cl)cc3c2=O)cc1F [(R)-1aa] | 0 | > 40 µM | –
COc1ccc(-n2c([C@H]3CCCN3)nc3c(C)cc([N+](=O)[O-])cc3c2=O)cc1 [BDGR-49, reference compound] | 0 | – | –
COc1c(F)cc(-n2c(-c3cccnc3)nc3cc(N4CCN(C(C)C)CC4)c(Cl)cc3c2=O)cc1F [1ad] | 0 | > 40 µM | –
COc1c(F)cc(-n2c([C@H]3CCCN3)nc3cc(N4CCN(C(C)C)CC4)c(F)cc3c2=O)cc1F [(R)-1b] | 1.3 | > 40 µM | –
COc1c(F)cc(-n2c([C@@H]3CCCN(C)C3)nc3cc(N4CCN(C(C)C)CC4)c(Cl)cc3c2=O)cc1F [(R)-1y] | 1.3 | 23.6 µM | –
COc1c(F)cc(-n2c([C@@H]3CCCNC3)nc3cc(N4CCNCC4)c(Cl)cc3c2=O)cc1F [(R)-1n] | 0.7 | 16.5 µM | –
COc1c(F)cc(-n2c([C@@H]3CCCNC3)nc3cc(N4CCN(C(C)(C)C)CC4)c(Cl)cc3c2=O)cc1F [(R)-1j] | 1.1 | 17.1 µM | –
COc1c(F)cc(-n2c(-c3ccccn3)nc3cc(N4CCN(C(C)C)CC4)c(Cl)cc3c2=O)cc1F [1ac] | 0 | > 40 µM | –
COc1c(F)cc(-n2c([C@@H]3CCCN3)nc3cc(N4CCNCC4)c(Cl)cc3c2=O)cc1F [(S)-1e] | 1.6 | 22.8 µM | –
CC(C)N1CCN(c2cc3nc([C@H]4CCCNC4)n(-c4cccc(Cl)c4)c(=O)c3cc2Cl)CC1 [(S)-1w] | 2.6 | 14.8 µM | –
COc1c(F)cc(-n2c([C@H]3CCCN3)nc3cc(N4CCN(C)CC4)c(Cl)cc3c2=O)cc1F [(R)-1c] | 0.5 | > 40 µM | –
COc1c(F)cc(-n2c([C@@H]3CCCCN3)nc3cc(N4CCN(C(C)C)CC4)c(Cl)cc3c2=O)cc1F [(S)-1h] | 1.7 | 34.8 µM | –
COc1c(F)cc(-n2c([C@@H]3CCCN3)nc3cc(N4CCN(C)CC4)c(F)cc3c2=O)cc1F [(S)-1a] | 0.3 | > 40 µM | –
COc1c(F)cc(-n2c([C@@H]3CCCNC3)nc3cc(N4CCC(N5CCOCC5)CC4)c(Cl)cc3c2=O)cc1F [(R)-1o] | 1.1 | 20.6 µM | –
COc1c(F)cc(-n2c([C@@H]3CCCNC3)nc3cc(N(C)CCN(C)C)c(Cl)cc3c2=O)cc1F [(R)-1q] | 0.6 | 26.6 µM | –
CC(C)N1CCN(c2cc3nc([C@@H]4CCCNC4)n(C)c(=O)c3cc2Cl)CC1 [(R)-1r] | 0.5 | > 40 µM | –
CC(C)N1CCN(c2cc3nc([C@H]4CCCNC4)n(C)c(=O)c3cc2Cl)CC1 [(S)-1r] | 0.7 | > 40 µM | –
COc1c(F)cc(-n2c([C@@H]3CCCN3)nc3cc(N4CCN(C(C)C)CC4)c(F)cc3c2=O)cc1F [(S)-1b] | 0.64 | > 40 µM | –
COc1c(F)cc(-n2c(C3CCNCC3)nc3cc(N4CCN(C(C)C)CC4)c(Cl)cc3c2=O)cc1F [1i] | 0.95 | 29.1 µM | –

Compound | log reduction at 10 µM [1] | CC50 at 72 h [2] | CC50 [3]
COc1c(F)cc(-n2c([C@@H]3CCCNC3)nc3cc(N4CCC(N5CCN(C)CC5)CC4)c(Cl)cc3c2=O)cc1F [(R)-1p] | 2.5 | 13.1 µM | –
CC(C)N1CCN(c2cc3nc([C@H]4CCCNC4)n(-c4ccc(Cl)cc4)c(=O)c3cc2Cl)CC1 [(S)-1v] | 2 | 17.2 µM | –
COc1c(F)cc(-n2c([C@H]3CCCNC3)nc3cc(N4CCN(C(C)(C)C)CC4)c(Cl)cc3c2=O)cc1F [(S)-1j] | ~3 | 8.9 µM | –
COc1ccc(-n2c([C@@H]3CCCNC3)nc3cc(N4CCN(C(C)C)CC4)c(Cl)cc3c2=O)cc1 [(R)-1t] | 1.4 | 29.3 µM | –
CC(C)N1CCN(c2cc3nc([C@H]4CCCNC4)n(-c4ccccc4)c(=O)c3cc2Cl)CC1 [(S)-1s] | 1 | > 40 µM | –
CC(C)N1CCN(c2cc3nc([C@@H]4CCCNC4)n(-c4ccc(F)cc4)c(=O)c3cc2Cl)CC1 [(R)-1u] | 2.1 | 23.8 µM | –
CC(C)N1CCN(c2cc3nc([C@@H]4CCCNC4)n(-c4ccccc4)c(=O)c3cc2Cl)CC1 [(R)-1s] | 0.9 | > 40 µM | –
COc1c(F)cc(-n2c([C@H]3CCN3)nc3cc(N4CCN(C(C)C)CC4)c(Cl)cc3c2=O)cc1F [(R)-1f] | 0.1 | > 40 µM | –
COc1c(F)cc(-n2c([C@H]3CCCNC3)nc3cc(N4CCNCC4)c(Cl)cc3c2=O)cc1F [(S)-1n] | 0.8 | 13.7 µM | –
COc1c(F)cc(-n2c([C@H]3CCCNC3)nc3cc(N4CCC(N5CCN(C)CC5)CC4)c(Cl)cc3c2=O)cc1F [(S)-1p] | 1.8 | 12.1 µM | –
CC(C)N1CCN(c2cc3nc([C@@H]4CCCCN4)n(-c4ccc(Cl)cc4)c(=O)c3cc2Cl)CC1 [(S)-1x] | 3.4 | 16.5 µM | –
CC(C)N1CCN(c2cc3nc([C@H]4CCCCN4)n(-c4ccc(Cl)cc4)c(=O)c3cc2Cl)CC1 [(R)-1x] | 5.2 | 12 µM | –
COc1c(F)cc(-n2c([C@@H]3CCCNC3)nc3cc(N4CCN(C5CCN(C)CC5)CC4)c(Cl)cc3c2=O)cc1F [(R)-1l] | 2.8 | 11.6 µM | –
COc1c(F)cc(-n2c([C@H]3CCCNC3)nc3cc(N4CCC(N5CCOCC5)CC4)c(Cl)cc3c2=O)cc1F [(S)-1o] | 0.3 | 30.1 µM | –
COc1c(F)cc(-n2c([C@@H]3CCCNC3)nc3ccc(Cl)cc3c2=O)cc1F [(R)-1ab] | 0 | > 40 µM | –
COc1c(F)cc(-n2c([C@@H]3CCN3)nc3cc(N4CCN(C(C)C)CC4)c(Cl)cc3c2=O)cc1F [(S)-1f] | 0 | > 40 µM | –
CC(C)N1CCN(c2cc3nc([C@@H]4CCCNC4)n(-c4ccc(Cl)cc4)c(=O)c3cc2Cl)CC1 [(R)-1v] | 3.4 | 14.2 µM | –
COc1c(F)cc(-n2c([C@@H]3CCCNC3)nc3cc(N4CCN(C)CC4)c(Cl)cc3c2=O)cc1F [(R)-1m] | 2.2 | 23.3 µM | –
COc1c(F)cc(-n2c([C@@H]3CCCNC3)nc3cc(N4CCN(c5ccccc5)CC4)c(Cl)cc3c2=O)cc1F [(R)-1k] | > 4 | 11.3 µM | –
COc1c(F)cc(-n2c([C@H]3CCCN(C)C3)nc3cc(N4CCN(C(C)C)CC4)c(Cl)cc3c2=O)cc1F [(S)-1y] | 1.1 | 29.1 µM | –
COc1c(F)cc(-n2c([C@H]3CCCN3)nc3cc(N4CCN(C)CC4)c(F)cc3c2=O)cc1F [(R)-1a] | 0.1 | > 40 µM | –
COc1c(F)cc(-n2c([C@@H]3CCCCN3C)nc3cc(N4CCN(C(C)C)CC4)c(Cl)cc3c2=O)cc1F [(S)-1z] | 0.5 | 36.5 µM | –
COc1c(F)cc(-n2c([C@H]3CCCCN3C)nc3cc(N4CCN(C(C)C)CC4)c(Cl)cc3c2=O)cc1F [(R)-1z] | 0.4 | > 40 µM | –
COc1c(F)cc(-n2c([C@H]3CCCNC3)nc3cc(N4CCN(C(C)C)CC4)c(Cl)cc3c2=O)cc1F [(S)-1g] | 2.9 | 11.7 µM | –
COc1c(F)cc(-n2c([C@H]3CCCNC3)nc3cc(N(C)CCN(C)C)c(Cl)cc3c2=O)cc1F [(S)-1q] | 1.2 | 16.3 µM | –
COc1c(F)cc(-n2c([C@H]3CCCNC3)nc3cc(N4CCN(C)CC4)c(Cl)cc3c2=O)cc1F [(S)-1m] | 1 | 24.8 µM | –
